Converted amounts (≈) assume the structure as drawn. Read-outs that look alike come from different tables or passages of the source.
Test system: S. pneumoniae isolates
Assay: Micro-broth dilution MIC, Example 5
Type: cell-based, Streptococcus pneumoniae
Description: For all in vitro assays, fresh pneumococcal isolates were grown overnight (O/N) on horse blood agar (HBA) plates (39 g/L Columbia blood agar base [Oxoid] 5% [v/v] defribinated horse blood [Oxoid] at 37° C. with 5% supplemented CO2). Mueller-Hinton blood agar with 5% defibrinated sheep blood (MHSBA Roseworthy Media and Blood Service) was used for disk diffusion analysis as directed by Clinical Laboratory Standards Institute (CLSI) standards. Pneumococci were routinely grown in broth consisting of 4% lysed horse blood (LHB) with Cation Adjusted Mueller Hinton Broth (CAHMB, [Difco]) at 37° C. with 5% supplemented CO2. […] Isolates were stored in HSB at −80° C.
[Micro-broth dilutions and 96 well trays are prepared by the following method: 90 μL of 4% LHB:CAMHB is aliquotted into all wells using a multichannel pipette. 90 μL of working antimicrobial stocks were no serial diluted down the tray by a 1:2 dilution. Negative broth controls and dilution control were taken into account when planning the set up of a 96 well tray.] 10 μL of bacterial suspension was then added to the appropriate wells in the 96 well tray. Appropriate positive (no antimicrobial), negative (no antimicrobial or bacteria) and negative dilution (a serial dilution control of antimicrobial and broth) controls were included in each assay. […] The MBC was determined by a 99.95% inhibition of S. pneumoniae, taking into account the dilution factor. MICs and MBCs were determined in quadruplicate and the mode was taken as the representative value. The MIC50, MIC90 and MIC range and MBC50, MBC90 and MBC range were determined according to CLSI standards. The MIC50 and MIC90, or MBC50 and MBC90, are defined by the lowest concentrations which, when all the MICs and MBCs of the isolates are arranged from lowest to highest, inhibited the 50th and 90th percentile of the total amount of isolates, respectively.

`CC1(C)S[C@@H]2[C@H](NC(=O)[C@H](N)c3ccccc3)C(=O)N2[C@H]1C(=O)O` [Ampicillin] showed an MIC (Streptococcus pneumoniae, D39, 4% LHB:CAMHB, read-out: Relative MIC with media type for D39) of 0.023 µg/mL (≈ 0.0658 µM), an MIC (Streptococcus pneumoniae, D39, 10% horse serum-supplemented broth, read-out: Relative MIC with media type for D39) of 0.09 µg/mL (≈ 0.258 µM) and an MIC (Streptococcus pneumoniae, isolate A66.1, Table 22, CAMHB diluent for NCL062, read-out: MIC) of 0.045 µg/mL (≈ 0.129 µM). The MIC (Streptococcus pneumoniae, isolate D39, Table 22, CAMHB diluent for NCL062, read-out: MIC) was 0.0225 µg/mL (≈ 0.0644 µM), the MIC (Streptococcus pneumoniae, isolate P21, Table 22, CAMHB diluent for NCL062, read-out: MIC) was 0.0225 µg/mL (≈ 0.0644 µM) and the MIC (Streptococcus pneumoniae, isolate WCH57, Table 22, CAMHB diluent for NCL062, read-out: MIC) was 0.09 µg/mL (≈ 0.258 µM). The MIC (Streptococcus pneumoniae, isolate WCH158, Table 22, CAMHB diluent for NCL062, read-out: MIC) was 0.0225 µg/mL (≈ 0.0644 µM), the MIC (Streptococcus pneumoniae, isolate WU-2, Table 22, CAMHB diluent for NCL062, read-out: MIC) was 0.0225 µg/mL (≈ 0.0644 µM) and the MIC (Streptococcus pneumoniae, pneumococcal isolate A66.1, read-out: MIC) was 0.045 µg/mL (≈ 0.129 µM). The MIC (Streptococcus pneumoniae, pneumococcal isolate D39, read-out: MIC) was 0.023 µg/mL (≈ 0.0658 µM), the MIC (Streptococcus pneumoniae, pneumococcal isolate EF3030, read-out: MIC) was 0.023 µg/mL (≈ 0.0658 µM) and the MIC (Streptococcus pneumoniae, pneumococcal isolate L82016, read-out: MIC) was 0.023 µg/mL (≈ 0.0658 µM). The MIC (Streptococcus pneumoniae, pneumococcal isolate P9, read-out: MIC) was 0.023 µg/mL (≈ 0.0658 µM), the MIC (Streptococcus pneumoniae, pneumococcal isolate P21, read-out: MIC) was 0.023 µg/mL (≈ 0.0658 µM) and the MIC (Streptococcus pneumoniae, pneumococcal isolate TIGR4, read-out: MIC) was 0.023 µg/mL (≈ 0.0658 µM). For the same molecule, the MIC (Streptococcus pneumoniae, pneumococcal isolate WCH16, read-out: MIC) was 0.023 µg/mL (≈ 0.0658 µM), the MIC (Streptococcus pneumoniae, pneumococcal isolate WCH43, read-out: MIC) was 0.023 µg/mL (≈ 0.0658 µM) and the MIC (Streptococcus pneumoniae, pneumococcal isolate WCH46, read-out: MIC) was 0.023 µg/mL (≈ 0.0658 µM). It also gave an MIC (Streptococcus pneumoniae, pneumococcal isolate WCH57, read-out: MIC) of 0.023 µg/mL (≈ 0.0658 µM), an MIC (Streptococcus pneumoniae, pneumococcal isolate WCH77, read-out: MIC) of 0.023 µg/mL (≈ 0.0658 µM) and an MIC (Streptococcus pneumoniae, pneumococcal isolate WCH86, read-out: MIC) of 0.023 µg/mL (≈ 0.0658 µM). For the same molecule, the MIC (Streptococcus pneumoniae, pneumococcal isolate WCH89, read-out: MIC) was 0.023 µg/mL (≈ 0.0658 µM), the MIC (Streptococcus pneumoniae, pneumococcal isolate WCH92, read-out: MIC) was 0.09 µg/mL (≈ 0.258 µM) and the MIC (Streptococcus pneumoniae, pneumococcal isolate WCH137, read-out: MIC) was 0.023 µg/mL (≈ 0.0658 µM). It also gave an MIC (Streptococcus pneumoniae, pneumococcal isolate WCH158, read-out: MIC) of 0.023 µg/mL (≈ 0.0658 µM), an MIC (Streptococcus pneumoniae, pneumococcal isolate WCH184, read-out: MIC) of 0.045 µg/mL (≈ 0.129 µM) and an MIC (Streptococcus pneumoniae, pneumococcal isolate WCH211, read-out: MIC) of 0.023 µg/mL (≈ 0.0658 µM). For the same molecule, the MIC (Streptococcus pneumoniae, pneumococcal isolate WU2, read-out: MIC) was 0.023 µg/mL (≈ 0.0658 µM), the MIC50 (Streptococcus pneumoniae, all S. pneumoniae isolates, read-out: MIC50) was 0.023 µg/mL (≈ 0.0658 µM) and the MIC90 (Streptococcus pneumoniae, all S. pneumoniae isolates, read-out: MIC90) was 0.023 µg/mL (≈ 0.0658 µM). For the same molecule, the “MIC range” value (all S. pneumoniae isolates) was 0.011 to 0.09 µg/mL.
In the case of `N=C(N/N=C/c1ccc(Cl)cc1)N/N=C/c1ccc(Cl)cc1` [NCL812, 1,3-bis[(E)-(4-chlorophenyl)methyleneamino]guanidine], the MIC (Streptococcus pneumoniae, read-out: Relative MIC with media type for D39, D39, 10% horse serum-supplemented broth) is reported as 32 µg/mL (≈ 95.7 µM).

Source: patent publication US10253002B2, “Compounds and methods of treating infections” (Neoculi Pty Ltd., priority 2013, dated 2019)
